Consider 39 compounds from ChEMBL document CHEMBL3875210, “Synthesis, functionalization and biological activity of arylated derivatives of (+)-estrone” (Bioorg Med Chem, 2017).

The structures appear in SMILES notation.

Target in the first assay: not listed separately
As to the kind of experiment: Inhibition of pancreatic lipase (unknown origin) assessed as decrease in release of fatty acid from triolein incubated for 30 mins by phenolphthalein-baed titrimetric method. Further details: species or system Homo sapiens.
Conditions: not given
In general, IC50 refers to the concentration at which inhibition is half-maximal. Take `CC(C)c1cc2c(c(O)c1O)[C@@]1(C(=O)O)CCCC(C)(C)[C@@H]1CC2` [CARNOSIC ACID]: the IC50 is 12 µg/mL.

The assay is the same for the next values; noted with them: read-out: IC50.
For the compound `Cc1cc2c(c(O)c1-c1c(C)cc3c(c1O)C(=O)c1c(O)cc(O)cc1C3=O)C(=O)c1c(O)cccc1C2=O` [CASSIAMIN A], the IC50 stood at 41.8 µM. On the same count and under the same terms, under `Oc1cc(O)c2c(c1)O[C@H](c1ccc(O)c(O)c1)[C@H](O)C2` [(-)-EPICATECHIN] stands above 20 µM; under `C[C@H]1[C@H](C)CC[C@]2(C(=O)O)CC[C@]3(C)C(=CC[C@@H]4[C@@]5(C)CC[C@H](O)C(C)(C)[C@@H]5CC[C@]43C)[C@H]12` [URSOLIC ACID], 15.8 µM.

A further assay has as its target Pancreatic triacylglycerol lipase (Sus scrofa) (UniProt P00591). Kind of assay: Inhibition of porcine pancreatic lipase using p-nitrophenylbutyrate as substrate preincubated for 10 mins followed by substrate addition measured after 20 mins.
Conditions: not given
On to `CCc1ccc(-c2c(O)ccc3c2CC[C@@H]2[C@@H]3CC[C@]3(C)C(=O)CC[C@@H]23)cc1`, for which the IC50 amounted to 13.6 µM. With `COc1ccc(-c2cc3c(cc2O)CC[C@@H]2[C@@H]3CC[C@]3(C)C(=O)CC[C@@H]23)cc1`, it took 12.3 µM to reach half-maximal inhibition (IC50). Compound `COc1cc(OC)cc(-c2c(O)ccc3c2CC[C@@H]2[C@@H]3CC[C@]3(C)C(=O)CC[C@@H]23)c1` showed an IC50 of 59.7 µM. Turning to `C[C@]12CC[C@@H]3c4cc(-c5ccc(F)cc5)c(O)c(-c5ccc(F)cc5)c4CC[C@H]3[C@@H]1CCC2=O`, the IC50 worked out at 0.82 µM. `CC(C)(C)c1ccc(-c2cc3c(c(-c4ccc(C(C)(C)C)cc4)c2O)CC[C@@H]2[C@@H]3CC[C@]3(C)C(=O)CC[C@@H]23)cc1` had an IC50 of 8.29 µM.

Regarding `COc1ccc(-c2cc3c(c(-c4ccc(OC)cc4)c2O)CC[C@@H]2[C@@H]3CC[C@]3(C)C(=O)CC[C@@H]23)cc1`, 5.28 µM corresponded to half-maximal inhibition (IC50). Consider `CC(C)(C)c1ccc(-c2c(O)ccc3c2CC[C@@H]2[C@@H]3CC[C@]3(C)C(=O)CC[C@@H]23)cc1`, for which half-maximal inhibition (IC50) was put at 1.78 µM. On to `CC(C)(C)c1ccc(-c2cc3c(cc2O)CC[C@@H]2[C@@H]3CC[C@]3(C)C(=O)CC[C@@H]23)cc1`, for which the IC50 was 5.66 µM. The compound `C[C@]12CC[C@@H]3c4ccc(O)c(-c5ccccc5)c4CC[C@H]3[C@@H]1CCC2=O` came in with a half-maximal inhibitory concentration (IC50) of 1.54 µM. As to `C[C@]12CC[C@@H]3c4cc(-c5cccc(F)c5)c(O)cc4CC[C@H]3[C@@H]1CCC2=O`, the IC50 worked out at 16.3 µM. On the same count and under the same terms, under `C[C@]12CC[C@@H]3c4cc(-c5ccccc5)c(O)c(-c5ccccc5)c4CC[C@H]3[C@@H]1CCC2=O` stands 25.6 µM; under `C[C@]12CC[C@@H]3c4cc(-c5ccc(Cl)cc5)c(O)c(-c5ccc(Cl)cc5)c4CC[C@H]3[C@@H]1CCC2=O`, 1.75 µM; under `C[C@]12CC[C@@H]3c4ccc(O)c(-c5ccc(OC(F)(F)F)cc5)c4CC[C@H]3[C@@H]1CCC2=O`, 6.42 µM. In turn, `C[C@]12CC[C@@H]3c4ccc(O)c(-c5cccc(F)c5)c4CC[C@H]3[C@@H]1CCC2=O` gave an IC50 of 1.34 µM. The same measure, in the same setting: under `C[C@]12CC[C@@H]3c4cc(-c5ccccc5F)c5oc6ccccc6c5c4CC[C@H]3[C@@H]1CCC2=O` stands 0.93 µM; under `C[C@]12CC[C@@H]3c4cc(-c5ccc(OC(F)(F)F)cc5)c(O)c(-c5ccc(OC(F)(F)F)cc5)c4CC[C@H]3[C@@H]1CCC2=O`, 1.21 µM. As to `C[C@]12CC[C@@H]3c4ccc5oc(=O)c6ccccc6c5c4CC[C@H]3[C@@H]1CCC2=O`, half-maximal inhibition (IC50) was put at 1.36 µM. `Cc1cc(C)cc(-c2cc3c(c(-c4cc(C)cc(C)c4)c2O)CC[C@@H]2[C@@H]3CC[C@]3(C)C(=O)CC[C@@H]23)c1` had an IC50 of 24.1 µM. Regarding `C[C@]12CC[C@@H]3c4cc(-c5cccc(F)c5)c(O)c(-c5cccc(F)c5)c4CC[C@H]3[C@@H]1CCC2=O`, the midpoint of inhibition, the IC50, lay at 7.19 µM.

As for `C[C@]12CC[C@@H]3c4ccc(O)c(-c5ccc(C(F)(F)F)cc5)c4CC[C@H]3[C@@H]1CCC2=O`, the IC50 was found to be 0.82 µM. Compound `COc1cc(OC)cc(-c2cc3c(cc2O)CC[C@@H]2[C@@H]3CC[C@]3(C)C(=O)CC[C@@H]23)c1` yielded an IC50 of 16.4 µM. Take `C[C@]12CC[C@@H]3c4cc(-c5ccc(OC(F)(F)F)cc5)c(O)cc4CC[C@H]3[C@@H]1CCC2=O`: it took 2.54 µM to reach half-maximal inhibition (IC50). `Cc1ccc(-c2cc3c(cc2O)CC[C@@H]2[C@@H]3CC[C@]3(C)C(=O)CC[C@@H]23)cc1` registered an IC50 of 1.21 µM. In turn, `C[C@]12CC[C@@H]3c4cc(-c5ccc(C(F)(F)F)cc5)c(O)cc4CC[C@H]3[C@@H]1CCC2=O` displayed a half-inhibitory concentration (IC50) of 16.3 µM.

Another assay deals with pancreatic lipase (Sus scrofa). As to the kind of experiment: Inhibition of pancreatic lipase (unknown origin) at 100 uM using p-nitrophenylbutyrate as substrate preincubated for 10 mins followed by substrate addition measured after 20 mins.
Conditions: not given
Usually inhibition stands for the change of the read-out against control, counted positive when it falls. A low value points to a weak effect. Turning to `Cc1ccc(-c2c(O)ccc3c2CC[C@@H]2[C@@H]3CC[C@]3(C)C(=O)CC[C@@H]23)cc1`, the inhibition was determined as 38%. As to `C[C@]12CC[C@@H]3c4ccc5oc6ccccc6c5c4CC[C@H]3[C@@H]1CCC2=O`, the inhibition was found to be 32%.

As for `COc1ccc(-c2c(O)ccc3c2CC[C@@H]2[C@@H]3CC[C@]3(C)C(=O)CC[C@@H]23)c(OC)c1OC`, the inhibition stood at 43%.

In turn, `COc1ccc(-c2c(O)ccc3c2CC[C@@H]2[C@@H]3CC[C@]3(C)C(=O)CC[C@@H]23)cc1` gave an inhibition of 42%.

Regarding `C[C@]12CC[C@@H]3c4cc(-c5ccccc5)c(O)cc4CC[C@H]3[C@@H]1CCC2=O`, the inhibition is 39%.

The compound `Cc1ccc(-c2cc3c(c(-c4ccc(C)cc4)c2O)CC[C@@H]2[C@@H]3CC[C@]3(C)C(=O)CC[C@@H]23)cc1` gave an inhibition of 39%.

`CCc1ccc(-c2cc3c(c(-c4ccc(CC)cc4)c2O)CC[C@@H]2[C@@H]3CC[C@]3(C)C(=O)CC[C@@H]23)cc1` returned an inhibition of 41%. Same read-out and setting: the value for `C[C@]12CC[C@@H]3c4cc(-c5ccccc5F)c(O)c(-c5ccccc5F)c4CC[C@H]3[C@@H]1CCC2=O` was 43%. As to `C[C@]12CC[C@@H]3c4ccc(O)c(-c5ccc(Cl)cc5)c4CC[C@H]3[C@@H]1CCC2=O`, the inhibition was found to be 45%. As to `C[C@]12CC[C@@H]3c4cc(-c5ccc(C(F)(F)F)cc5)c(O)c(-c5ccc(C(F)(F)F)cc5)c4CC[C@H]3[C@@H]1CCC2=O`, the inhibition came out at 42%. Still for that read-out and setting: under `COc1ccc(-c2cc3c(c(-c4ccc(OC)c(OC)c4OC)c2O)CC[C@@H]2[C@@H]3CC[C@]3(C)C(=O)CC[C@@H]23)c(OC)c1OC` stands 37%.
